Measurements: patent US20110110965A1, “COMPOSITIONS THAT INDUCE T CELL HELP” (Selecta Biosciences, Inc., priority 2009, published 2011)
“Also recorded” adds a separate entry of the source. Read-outs that look alike come from different tables or passages of the source. Where no end group is shown, it is not given here. [ ]: non-standard residue; d: D form.

Assays:
[1] = system: CD4+/CD45RAlow/CD62Lhigh central memory T-cells; type: cell-based, human; conditions: for memory T-cell recall response, influenza epitopes: 5 PBMC donors, FIG. 12; for memory T-cell recall response, influenza epitopes / potency of recall response (activated central memory T-cells, CD4+/CD45RAmedium/CD62Lhigh/IFN-γ+) / memory T-cell recall response of individual peptides and heterodimeric peptides lacking a cathepsin cleavage site compared with this peptide: 4 μM peptide; for potency of recall response (activated central memory T-cells, CD4+/CD45RAmedium/CD62Lhigh/IFN-γ+): human PBMC, 20 donors, FIG. 2; for memory T-cell recall response of individual peptides and heterodimeric peptides lacking a cathepsin cleavage site compared with this peptide: 4 donors, the comparators gave the weaker response, the labelled kvsvr peptides the stronger
[2] = system: CD4+/CD45RAlow/CD62Lhigh central memory T-cells; experiment: Dendritic cell/CD4 T-cell co-culture, multi-color intracellular cytokine analysis; type: cell-based, human; conditions: for expression of IL-4 in peptide activated memory T-cells / expression of TNF-α and IFN-γ in peptide activated memory T-cells: DC/CD4 T-cell co-culture with peptide, FIGS. 4, 5; for co-expression of TNF-α and IFN-γ / co-expression of TNF-α and IL-4: multiple color flow cytometry, FIG. 6
Experimental: Early central memory-cells express multiple cytokines (IL-2, TNF-α, IFN-γ) when re-activated with specific peptides, whereas committed effector memory T-cells are thought to selectively express IL-4 for TH2 committed effector memory, and IFN-γ for TH1 committed effector memory. The status of peptide activated memory T-cells was tested using multi-color intracellular cytokine analysis of dendritic cell/CD4 cell co-cultures.
Human peripheral blood monocytes were isolated using negative-selection magnetic beads (Dynal) and cultured in the presence of GM-CSF and IL-4 for 1 week in order to induce differentiation into dendritic cells. Allogeneic CD4 T cells were isolated using magnetic bead separation (Dynal) and co-cultured in the presence of DCs in the presence or absence of peptide. The protocol for stimulation and analysis from that point is identical to that for PBMC described above in Example 2.

CSQRSKFLLMDALKLkvsvrLIFLARSALILR [AAWkAAT]
memory T-cell recall response, influenza epitopes [1]: positive

ILMQYIKANSKFIGI QSIALSSLMVAQTLLYVLFEV (ILMQYIKANSKFIGIQSIALSSLMVAQTLLYVLFEV) [TT830DTAdV]
memory T-cell recall response [1]: recall response in all 4 donors

ILMQYIKANSKFIGIPMGLPQSIALSSLMVAQ [TT830pDTt]
potency of recall response (activated central memory T-cells, CD4+/CD45RAmedium/CD62Lhigh/IFN-γ+) ([1]; listed as TT830 pmglpDTt): highest response; also recorded: more active than its individual components (TT830 and DT) alone
number (out of 20) donors positive for memory T-cells responding to peptide ([1]; positive if greater than 0.08% responding central memory T-cells in the CD4+CD45RAlow population, FIG. 3): 20/20
expression of IL-4 in peptide activated memory T-cells [2]: not IL-4
expression of TNF-α and IFN-γ in peptide activated memory T-cells [2]: increased expression
co-expression of TNF-α and IFN-γ [2]: peptide induced co-expression
co-expression of TNF-α and IL-4 [2]: not co-expression

ILMQYIKANSKFIGIQSIALSSLMVAQ [TT830DTt]
co-expression of TNF-α and IFN-γ [2]: peptide induced co-expression
co-expression of TNF-α and IL-4 [2]: not co-expression

ILMQYIKANSKFIGIQSIALSSLMVAQAIPLVGEL [TT830DT]
expression of IL-4 in peptide activated memory T-cells [2]: not IL-4
expression of TNF-α and IFN-γ in peptide activated memory T-cells [2]: increased expression

ILSIYSTVASSLALAIkvsvrLIFLARSALILR [ABW2kAAT]
memory T-cell recall response, influenza epitopes [1]: positive

LIFLARSALILRkvsvrILSIYSTVASSLALAI [AATkABW2]
memory T-cell recall response, influenza epitopes [1]: positive

NAELLVALENQHTIkvsvrLIFLARSALILR (NAELLVALENQHTIKVSVRLIFLARSALILR) [3120tkAAT]
memory T-cell recall response, influenza epitopes [1]: positive

TLLYVLFEVPMGLPILMQYIKANSKFIGI [AdVpTT830]
potency of recall response (activated central memory T-cells, CD4+/CD45RAmedium/CD62Lhigh/IFN-γ+) [1]: eliminated activity of the AdV epitope

TLLYVLFEVkvsvr NNFTVSFWLRVPKVSASHLET (TLLYVLFEV[dK][dV][dS][dV][dR]NNFTVSFWLRVPKVSASHLET) [AdVkTT950]
memory T-cell recall response of individual peptides and heterodimeric peptides lacking a cathepsin cleavage site compared with this peptide [1]: weaker response as compared to the donor response to heterotrimeric peptides

TLLYVLFEVkvsvrQSIALSSLMVAQ (TLLYVLFEV[dK][dV][dS][dV][dR]QSIALSSLMVAQ) [AdVkDTt]
memory T-cell recall response of individual peptides and heterodimeric peptides lacking a cathepsin cleavage site compared with this peptide [1]: weaker response as compared to the donor response to heterotrimeric peptides
